Results from ChEMBL document CHEMBL5120912, “Structure Revision of Trichomide D by Total Synthesis” (J Nat Prod, 2022).

How the values were obtained:
Assay type in all cases: functional, cell-based
[1] = tested on: MCF7; assay: Cytotoxicity against human MCF7 cells assessed as inhibition of cell growth incubated for 72 hrs by MTT assay; conditions: MCF7, 72 h
[2] = tested on: HeLa S3; assay: Cytotoxicity against human HeLa S3 cells assessed as inhibition of cell growth incubated for 72 hrs by MTT assay; conditions: HeLa S3, 72 h
[3] = tested on: MCF7; assay: Cytotoxicity against human MCF7 cells assessed as inhibition of cell growth incubated for 24 hrs by MTT assay; conditions: MCF7, 24 h
[4] = tested on: SW480; assay: Cytotoxicity against human SW480 cells assessed as inhibition of cell growth incubated for 24 hrs by MTT assay; conditions: SW480, 24 h
[5] = tested on: HL-60; assay: Cytotoxicity against human HL-60 cells assessed as inhibition of cell growth incubated for 24 hrs by MTT assay; conditions: HL-60, 24 h

Structure (SMILES): CC[C@H](C)[C@@H]1NC(=O)[C@@H]2[C@@H](C)CCN2C(=O)[C@@H](C[C@H](O)CO)OC(=O)CCNC(=O)[C@H](C)N(C)C(=O)[C@H]([C@@H](C)CC)N(C)C1=O
- IC50 [1]: > 10 µM
- IC50 [2]: > 10 µM

Structure (SMILES): CC[C@H](C)[C@@H]1NC(=O)[C@@H]2[C@@H](C)CCN2C(=O)[C@@H](C[C@@H](O)CCl)OC(=O)CCNC(=O)[C@H](C)N(C)C(=O)[C@H]([C@@H](C)CC)N(C)C1=O
- IC50 [1]: 2.8 µM
- IC50 [2]: 0.4 µM
- IC50 [3]: 0.079 µM
- IC50 [4]: 0.107 µM
- IC50 [5]: 0.149 µM

Structure (SMILES): CC[C@H](C)[C@@H]1NC(=O)[C@@H]2[C@@H](C)CCN2C(=O)[C@@H](C[C@H](O)CCl)OC(=O)CCNC(=O)[C@H](C)N(C)C(=O)[C@H]([C@@H](C)CC)N(C)C1=O
- IC50 [1]: 0.34 µM
- IC50 [2]: 0.031 µM

Structure (SMILES): CO[C@@]12[C@H](COC(N)=O)C3=C(C(=O)C(C)=C(N)C3=O)N1C[C@@H]1N[C@@H]12 [MITOMYCIN]
- IC50 [1]: 1.8 µM
- IC50 [2]: 0.52 µM
